Patent US7977362B2, “Alpha-(N-benzenesulfonamido)cycloalkyl derivatives” (Bristol-Myers Squibb Company, priority 2009, dated 2011)

Tested on: Aβ formation (γ-secretase) in H4 cells stably transfected to overexpress the HPLAP-APP fusion protein
Test: In vitro assay based on the inhibition of Aβ formation in cultured cells
Type: cell-based, human
Settings: H4 cells overexpressing HPLAP-APP, 18 hrs incubation at 37° C., Aβ in supernatant by time-resolved fluorescence
Description: Cultured human cell lines, such as HEK293 and H4 cells, which express APP and γ-secretase activity or transfected derivative cell lines that overexpress wild-type APP, mutant APP, or APP fusion proteins will secrete Aβ peptides into the culture media that can be quantified as previously outlined (Dovey, H. et al., J. Neurochem., 76:173-181 (2001)). The incubation of these cultured cells with γ-secretase inhibitors decreases the production of Aβ peptides. For instance, H4 cells stably transfected to overexpress the HPLAP-APP fusion protein described above were grown as above, detached, and adjusted to 2×10^5 cells/ml. 100 μl of the resulting suspension was then added to each well of a 96-well plate. After 4 hrs, the media was removed and replaced with 100 μl serum-free media containing various dilutions of the test compound. Plates were then incubated for 18 hrs at 37° C. and a 100 μl aliquot of the tissue culture supernatant was removed for determination of Aβ levels using time-resolved fluorescence of the homogenous sample as outlined above. Alternately, the other methods described above for Aβ determination could be used. The extent of Aβ inhibition was used to calculate the IC50 value for the test compound.
In the table, an inhibitory concentration (IC50) of less than or equal to 50 nM is represented by +++; between 50 nM and 500 nM by ++; between 500 nM and 5000 nM by +.

[1] = Homo sapiens, 18 h, class symbols
[2] = Homo sapiens, 18 h, numeric values

Row | IC50 [1] [nM] | SMILES | further results
1 | 50 to 500 | O=S(=O)(c1ccc(Cl)cc1)N(Cc1ccc(-c2ncon2)cc1)[C@@H]1CCC[C@H]1CO (relative stereo) [Compound 2, N-(4-(1,2,4-Oxadiazol-3-yl)benzyl)-4-chloro-N-(trans-2-(hydroxymethyl)cyclopentyl)benzenesulfonamide] | –
2 | 50 to 500 | O=S(=O)(c1ccc(Cl)cc1)N(Cc1ccc(-c2ncon2)cc1)[C@@H]1CCC[C@@H]1CO (relative stereo) [Compound 4, N-(4-(1,2,4-Oxadiazol-3-yl)benzyl)-4-chloro-N-(cis-2-(hydroxymethyl)cyclopentyl)benzenesulfonamide] | –
3 | ≤ 50 | O=S(=O)(c1ccc(Cl)cc1)N(Cc1ccc(-c2ncon2)cc1)[C@@H]1CCCC[C@H]1CO (relative stereo) [Compound 5, N-(4-(1,2,4-Oxadiazol-3-yl)benzyl)-4-chloro-N-(trans-2-(hydroxymethyl)cyclohexyl)benzenesulfonamide] | –
4 | ≤ 50 | O=S(=O)(c1ccc(Cl)cc1)N(Cc1ccc(-c2ncon2)cc1F)[C@@H]1CCCC[C@H]1CO (relative stereo) [Compound 8, 4-Chloro-N-(2-fluoro-4-(1,2,4-oxadiazol-3-yl)benzyl)-N-(trans-2-(hydroxymethyl)cyclohexyl)benzenesulfonamide] | –
5 | ≤ 50 | O=S(=O)(c1ccc(Cl)s1)N(Cc1ccc(-c2ncon2)cc1)[C@@H]1CCCC[C@H]1CO (relative stereo) [Compound 12, N-(4-(1,2,4-Oxadiazol-3-yl)benzyl)-5-chloro-N-(trans-2-(hydroxymethyl)cyclohexyl)thiophene-2-sulfonamide] | –
6 | ≤ 50 | O=S(=O)(c1ccc(Cl)cc1)N(Cc1ccc(-c2ncon2)cc1)[C@@H]1CCCCC[C@H]1CO (relative stereo) [Compound 29, N-(4-(1,2,4-Oxadiazol-3-yl)benzyl)-4-chloro-N-(trans-2-(hydroxymethyl)cycloheptyl)benzenesulfonamide] | –
7 | ≤ 50 | O=S(=O)(c1ccc(Cl)cc1)N(Cc1ccc(-c2ncon2)cc1)[C@@H]1CCCCC[C@@H]1CO (relative stereo) [Compound 32, N-(4-(1,2,4-Oxadiazol-3-yl)benzyl)-4-chloro-N-(cis-2-(hydroxymethyl)cycloheptyl)benzenesulfonamide] | –
8 | ≤ 50 | O=S(=O)(c1ccc(Cl)cc1)N(Cc1ccc(-c2ncon2)cc1)[C@@H]1CCCC[C@H]1CO (single isomer, unassigned) [Compound 6, N-(4-(1,2,4-oxadiazol-3-yl)benzyl)-4-chloro-N-(trans-2-(hydroxymethyl)cyclohexyl)benzenesulfonamide] | –

Second part, the molecule before the results:

Row | SMILES | IC50 [1] [nM] | further results
9 | O=S(=O)(c1ccc(Cl)cc1)N(Cc1ccc(-c2ncco2)cc1)[C@@H]1CCC[C@H]1CO (relative stereo) [Compound 1, 4-Chloro-N-(trans-2-(hydroxymethyl)cyclopentyl)-N-(4-(oxazol-2-yl)benzyl)benzenesulfonamide] | 50 to 500 | –
10 | O=S(=O)(c1ccc(Cl)cc1)N(Cc1ccc(-c2ncco2)cc1)[C@@H]1CCC[C@@H]1CO (relative stereo) [Compound 3, 4-Chloro-N-(cis-2-(hydroxymethyl)cyclopentyl)-N-(4-(oxazol-2-yl)benzyl)benzenesulfonamide] | – | IC50 [2]: 223 nM
11 | O=S(=O)(c1ccc(Cl)cc1)N(Cc1ccc(-c2ncco2)c(F)c1F)[C@@H]1CCCC[C@H]1CO (relative stereo) [Compound 9, 4-Chloro-N-(2,3-difluoro-4-(oxazol-2-yl)benzyl)-N-(trans-2-(hydroxymethyl)cyclohexyl)benzenesulfonamide] | ≤ 50 | –
12 | N#Cc1cc(F)c(CN([C@@H]2CCCC[C@H]2CO)S(=O)(=O)c2ccc(Cl)cc2)cc1F (relative stereo) [Compound 10, 4-Chloro-N-(4-cyano-2,5-difluorobenzyl)-N-(trans-2-(hydroxymethyl)cyclohexyl)benzenesulfonamide] | ≤ 50 | –
13 | O=S(=O)(c1ccc(Cl)cc1)N(Cc1cc(F)c(-c2ncon2)cc1F)[C@@H]1CCCC[C@H]1CO (relative stereo) [Compound 11, 4-Chloro-N-(2,5-difluoro-4-(1,2,4-oxadiazol-3-yl)benzyl)-N-(trans-2-(hydroxymethyl)cyclohexyl)benzenesulfonamide] | – | IC50 (numeric values): 0.32 nM
14 | O=S(=O)(c1ccc(Cl)s1)N(Cc1ccc(-c2ncco2)c(F)c1F)[C@@H]1CCCC[C@H]1CO (relative stereo) [Compound 13, 5-Chloro-N-(2,3-difluoro-4-(oxazol-2-yl)benzyl)-N-(trans-2-(hydroxymethyl)cyclohexyl)thiophene-2-sulfonamide] | ≤ 50 | –
15 | O=S(=O)(c1ccc(C(F)(F)F)nc1)N(Cc1ccc(-c2ncco2)c(F)c1F)[C@@H]1CCCC[C@H]1CO (relative stereo) [Compound 27, N-(2,3-Difluoro-4-(oxazol-2-yl)benzyl)-N-(trans-2-(hydroxymethyl)cyclohexyl)-6-(trifluoromethyl)pyridine-3-sulfonamide] | ≤ 50 | –
16 | N#Cc1ccc(CN([C@@H]2CCCCC[C@H]2CO)S(=O)(=O)c2ccc(Cl)cc2)cc1 (relative stereo) [Compound 28, 4-Chloro-N-(4-cyanobenzyl)-N-(trans-2-(hydroxymethyl)cycloheptyl)benzenesulfonamide] | ≤ 50 | –
17 | O=S(=O)(c1ccc(Cl)cc1)N(Cc1ccc(-c2ncco2)cc1)[C@@H]1CCCCC[C@H]1CO (relative stereo) [Compound 30, 4-Chloro-N-(trans-2-(hydroxymethyl)cycloheptyl)-N-(4-(oxazol-2-yl)benzyl)benzenesulfonamide] | ≤ 50 | –
18 | O=S(=O)(c1ccc(Cl)cc1)N(Cc1ccc(-c2ncco2)cc1)[C@@H]1CCCCC[C@@H]1CO (relative stereo) [Compound 31, 4-Chloro-N-(cis-2-(hydroxymethyl)cycloheptyl)-N-(4-(oxazol-2-yl)benzyl)benzenesulfonamide] | 50 to 500 | –
19 | O=S(=O)(c1ccc(Cl)cc1)N(Cc1ccc(-c2ncon2)cc1)[C@@H]1CCCC[C@H]1CO (single isomer, unassigned) [Compound 7, N-(4-(1,2,4-oxadiazol-3-yl)benzyl)-4-chloro-N-(trans-2-(hydroxymethyl)cyclohexyl)benzenesulfonamide] | – | IC50 (class symbols): ≤ 50 nM
20 | O=S(=O)(N[C@H]1CCCC[C@@H]1CO)c1ccc(Cl)cc1 (single isomer, unassigned) [Compound 14] | 500 to 5000 | –
21 | O=S(=O)(N[C@@H]1CCCC[C@H]1CO)c1ccc(Cl)cc1 (single isomer, unassigned) [Compound 15] | 500 to 5000 | –
22 | CC(O)[C@@H]1CCCC[C@H]1N(Cc1ccc(-c2ncco2)cc1F)S(=O)(=O)c1ccc(Cl)cc1 (single isomer, unassigned) [Compound 24] | – | IC50 [2]: 2300 nM
23 | CC(O)[C@@H]1CCCC[C@H]1N(Cc1ccc(-c2ncco2)cc1F)S(=O)(=O)c1ccc(Cl)cc1 (single isomer, unassigned) [Compound 25] | ≤ 50 | –
24 | O=S(=O)(c1ccc(Cl)cc1)N(Cc1ccc(-c2ncco2)c(F)c1F)[C@@H]1CCCC[C@H]1CO [Compound 16, 4-Chloro-N-(2,3-difluoro-4-(oxazol-2-yl)benzyl)-N-((1R,2R)-2-(hydroxymethyl)cyclohexyl)benzenesulfonamide] | – | IC50 (class symbols): ≤ 50 nM
25 | O=S(=O)(c1ccc(Cl)cc1)N(Cc1ccc(-c2ncon2)cc1)[C@@H]1CCCC[C@H]1CO [Compound 17, N-(4-(1,2,4-Oxadiazol-3-yl)benzyl)-4-chloro-N-((1R,2R)-2-(hydroxymethyl)cyclohexyl)benzenesulfonamide] | – | IC50 (class symbols): ≤ 50 nM
